Test results as given in patent US20080051424A1, “Heterocyclyl-substituted nonadepsipeptides” (priority 2004, published 2008).
Starred links: 1 amine or outer side, 2 acyl side, 3 side chain; linkers in the order of their positions; H or OH if unused. Positions of bridges follow the written chain, without caps; N, C: chain ends. Non-standard residues stand in square brackets, D forms with d. Residues, ends and D or L forms follow the SMILES beside them. Phe(3R-OH) = O=C([C@@H](N[*:1])[C@H](O[*:3])c1ccccc1)[*:2]; X1 = CC1CC(C)NC(NCCC[C@@H](N[*:1])C(=O)[*:2])=N1; Asn(3S-OH) = NC(=O)[C@@H](O)[C@H](N)C(=O)O; Leu(3R-OH) = CC(C)[C@@H](O)[C@H](N)C(=O)O; aThr = C[C@H](O)[C@H](N)C(=O)O

How the values were obtained:
E. faecalis ICB 27159 = assay type: cell-based, Enterococcus faecalis
Description: (§1) Determination of the Minimum Inhibitory Concentration (MIC): The MIC is determined in the liquid dilution test in accordance with the NCCLS guidelines. Overnight cultures of Staphylococcus aureus 133, Entercococcus faecalis 27159, E. faecium 4147 and Streptococcus pneumoniae G9a are incubated with the described test substances in a 1:2 dilution series. The MIC determination is carried out with a cell count of 10^5 microorganisms per ml in Isosensitest medium (Difco, Irvine/USA), with the exception of S. pneumoniae, which is tested in BHI broth (Difco, Irvine/USA) with 10% bovine serum at a cell count of 10^6 microorganisms per ml. The cultures are incubated at 37° C. for 18-24 hours, S. pneumoniae in the presence of 10% CO2. The lowest substance concentration in each case at which no visible bacterial growth occurs any more is defined as the MIC. The MIC values are reported in μg/ml.

[1] = tested on: Streptococcus pneumoniae G9a; assay type: cell-based
Description: as §1

[2] = tested on: Staphylococcus aureus 133; assay type: cell-based
Description: as §1

MIC E. faecalis ICB 27159 (E. faecalis ICB 27159): 2 µg/mL | MIC S. pneumoniae [1]: 0.5 µg/mL | MIC S. aureus 133 [2]: 0.5 µg/mL
SMILES: CC[C@H](C)[C@@H]1NC(=O)[C@@H](CCCNC2=NC(C)CC(C)N2)NC(=O)[C@H](CC(C)C)NC(=O)[C@H]([C@H](O)C(C)C)NC(=O)[C@@H](NC(=O)[C@H](CC(C)C)NC(=O)[C@H](N)CC(C)C)[C@@H](c2ccccc2)OC(=O)[C@H](CO)NC(=O)[C@H]([C@H](O)C(N)=O)NC(=O)CNC(=O)[C@H]([C@H](C)O)NC1=O.O=C(O)C(F)(F)F.O=C(O)C(F)(F)F (stereo partly drawn) [Example 3, N^ω.6,N^ω′.6-(Pentane[2,4]diyl)lysobactin] (H-[dL]L[Phe(3R-OH)][Leu(3R-OH)]L[X1]I[aThr]G[Asn(3S-OH)]S; ester 3-C)
